One data set deals with A204. The data set can be described thus: SRB cell growth assay, 72 h. Type of data set: cell-based. The conditions noted are these: Homo sapiens, most sensitive, z-score <−1.5. Put shortly: (§1)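 Exponential-phase cells pre-grown 24 h, then exposed to compound for 72 h at 37° C (final DMSO 0.1%). TCA-fixed, SRB-stained, OD read at 560 nm. GI50 is growth inhibition relative to net protein gain in controls, corrected using time-zero plates.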

The subject of a further data set is IGROV1. The data set can be described thus: SRB cell growth assay, 72 h. It counts as cell-based. As to conditions: Homo sapiens, IGROV-1, most sensitive, z-score <−1.5. In outline: as §1
A further data set deals with IMR90. The experiment in a line: SRB cell growth assay, 72 h. Type of data set: cell-based. The conditions noted are these: Homo sapiens, IMR-90, most sensitive, z-score <−1.5. Put shortly:
as §1

The nature of data set [1]: chemical stability of dosing stock solution. It counts as physicochemical. The conditions noted are these: in 1N HCl and water for injection, pH 3; in the dark at 4° C. How it is done: Compound (2a) formulation was prepared in water for injection. The stock solution was chemically stable 7 days in the dark at 4° C. […] The pH of the final solution was 3. […]

In data set [2] the test system is PC-3, U87-MG, A2058, WM-266-4 and MCF7 xenografts. As to conditions: oral administration alone; PTEN-deficient PC-3, U87-MG, A2058, WM-266-4 or PIK3CA mutated MCF7 xenografts; cited from earlier work.
The next data set concerns HEK293. The experiment in a line: SRB cell growth assay, 72 h. Type of data set: cell-based, human. The conditions noted are these: single agent, up to 50 μM. How it is done: (§2) Cell growth and treatment were performed in 96-well microtitre plates CELLSTAR® (Greiner Bio-One, Germany). Cells harvested from exponential phase cultures by trypsinization were plated in 150 μl of media at optimal seeding densities. The optimal seeding densities for each cell line were determined to ensure exponential growth for the duration of the experiment. All cells growing without anticancer agents were sub-confluent by the end of the treatment as determined by visual inspection.
(§3) 150 μl of cells, after a 24-hour pre-growth period, were treated by mixing with 50 μl of the compound containing media (resulting in a final DMSO concentration of 0.1%). The cells were allowed to grow at 37° C. for 72 hours. In addition, all experiments contained a few plates with cells that were processed for measurement immediately after the 24 hours recovery period. These plates contained information about the cell number that existed before treatment, at time zero, and served to calculate the cytotoxicity.
(§4) After treatment, cells were precipitated by addition of 10% TCA. Prior to fixation, the media was aspirated as described. After an hour of incubation at 4° C., the plates were washed two times with 400 μl of deionized water. Cells were then stained with 100 μl of a 0.08% wt/v SRB. The plates were allowed to sit for at least 30 min. and washed six times with 1% acetic acid to remove unbound stain. The plates were left to dry at room temperature and bound SRB was solubilized with 100 μl of 10 mM Tris base. Measurement of optical density was performed at 560 nm on a Victor 2 plate reader (Perkin Elmer, Germany). The SRB values for A375 and H460 cell lines were near to saturation (2.5 OD units) due to the high protein content of these cells, but not cell confluence. The measurements for these cells were performed at 520 nm instead of 560 nm.
(§5) Using these measurements, cellular responses can be calculated for incomplete inhibition of cell growth (GI), complete inhibition of cell growth (T GI) and net loss of cells (LC) due to compound activity. […] This is the drug concentration causing a 50% reduction compared to the net protein increase in control cells during the drug incubation period. In other words, GI50 is IC50 corrected for time zero. Similar to IC90, calculated GI90 values are also reported for all compounds tested. TGI was calculated from Ti=Tz. […] It was calculated as 100×[(Ti−Tz)/Tz]=−50. However, due to 72 hours treatment, low cell seeding density was required and LC50 could rarely be achieved.

For a further data set, the system named is HT1080. The data set can be described thus: SRB cell growth assay, 72 h. It counts as cell-based, human. The method, then: as §2, §3, §4, §5
The test system of a further data set is J82. The experiment in a line: SRB cell growth assay, 72 h. Type of data set: cell-based, human. The conditions noted are these: single agent, up to 50 μM. How it is done: as §2, §3, §4, §5
The test system of another data set is JAR. The experiment in a line: SRB cell growth assay, 72 h. Type of data set: cell-based, human. The conditions noted are these: single agent, up to 50 μM. The method, then: as §2, §3, §4, §5
Another data set concerns JEG3. The data set can be described thus: SRB cell growth assay, 72 h. It counts as cell-based, human. The conditions noted are these: single agent, up to 50 μM. How it is done: as §2, §3, §4, §5
In a further data set the test system is MDAMB436. The experiment in a line: SRB cell growth assay, 72 h. Type of data set: cell-based, human. The conditions noted are these: single agent, up to 50 μM. How it is done:
as §2, §3, §4, §5

In another data set the test system is MHHES1. The experiment in a line: SRB cell growth assay, 72 h. It counts as cell-based, human. As to conditions: single agent, up to 50 μM. How it is done: as §2, §3, §4, §5
The next data set has as its system NCIH82. The experiment in a line: SRB cell growth assay, 72 h. Type of data set: cell-based, human. The conditions noted are these: single agent, up to 50 μM. How it is done:
as §2, §3, §4, §5

A further data set concerns PLCPRF5. The data set can be described thus: SRB cell growth assay, 72 h. Type of data set: cell-based, human. As to conditions: single agent, up to 50 μM. The method, then: as §2, §3, §4, §5
The next data set has as its system SF268. The experiment in a line: SRB cell growth assay, 72 h. It counts as cell-based, human. As to conditions: single agent, up to 50 μM. How it is done: as §2, §3, §4, §5
A further data set has as its system COLO205. The data set can be described thus: SRB cell growth assay, 72 h. Type of data set: cell-based. The conditions noted are these: Homo sapiens, COLO 205, most sensitive cell lines. In outline:
as §1

The next data set relates to NCIH292. The data set can be described thus: SRB cell growth assay, 72 h. It counts as cell-based. As to conditions: Homo sapiens, NCI-H292, most sensitive cell lines. Put shortly: as §1
The next data set relates to SF295. The experiment in a line: SRB cell growth assay, 72 h. The conditions noted are these: Homo sapiens, SF-295, highest tested concentration 50 μM, read-out: activity (estimated). It counts as cell-based. Put shortly:
as §1

The test system of a further data set is SKMEL5. The data set can be described thus: SRB cell growth assay, 72 h. It counts as cell-based. As to conditions: Homo sapiens, SK-MEL-5, most sensitive cell lines. In outline:
as §1

The subject of the next data set is SKOV3. The experiment in a line: SRB cell growth assay, 72 h. It counts as cell-based. The conditions noted are these: Homo sapiens, SK-OV-3, highest tested concentration 50 μM, read-out: activity (estimated). Put shortly:
as §1

The next data set relates to TE671. The data set can be described thus: SRB cell growth assay, 72 h. It counts as cell-based. The conditions noted are these: Homo sapiens, TE-671, most sensitive cell lines. In outline:
as §1

The subject of data set [3] is HCT116 tumor vascular permeability. The data set can be described thus: tumor vascular permeability, Evans Blue extravasation / Dextran-Fitc. It counts as in vivo, SCID mice. As to conditions: (1) 10 mg/kg oral daily day 11 to day 13.
Protocol: HCT116 tumor cells were implanted subcutaneously in the intra-scapular region in SCID mice. […] Each agent was given by oral route on a daily schedule. Tumor growth was monitored throughout the experiment by callipering the tumors. To quantify tumor vascular permeability, tumors were excised under ketamine/Xylazine (120/6 mg/kg ip) anesthesia at day 13, 4 hours post last treatment, 30 min after 0.5% Evans Blue iv injection, and 2 min post Dextran-Fitc 100 mg/kg iv injection. Tumors were then snap frozen, and 25 μm sections obtained for fluorescence quantification. Tumors sections were imaged with Icyte at 488 nm for vascular Dextran-Fitc determination and at 633 nm for Evans-Blue extravasation determination. Respective fluorescence were quantified as the sum of integral phantoms of fluorescence intensity and expressed as the mean ratio of Evans-Blue signal/Dextran-Fitc Signal.
Another data set deals with 217 kinases. The conditions noted are these: tested at 10 μM; cited from earlier work.
The next data set concerns 90 non-kinase targets. The conditions noted are these: tested at 10 μM; cited from earlier work.
The conditions of data set [4]: mice and rats; cited from earlier work.
The conditions of data set [5]: mice; cited from earlier work.

One may read the GI50 as the concentration at which growth is held to half of that of the control. Low readings indicate more potent growth inhibition, high ones less potent growth inhibition. Take `CCn1c(=O)c(-c2ccn[nH]2)cc2c(C)nc(N)nc21` [Compound (2b), 2-amino-8-ethyl-4-methyl-6-(1H-pyrazol-5-yl)pyrido[2,3-d]pyrimidin-7(8H)-one]: the 50% growth inhibitory concentration (GI50) in the data set on A204, in the data set with IGROV1 and in the data set on IMR90 was under 500 nM in each case. Also, the “stock solution chemically stable” value in data set [1] turned out to be 7 days. In addition, the tumor growth entry in data set [2] was “inhibits tumor growth”.

As a reminder, the clearance is the rate of elimination divided by the concentration. As usually defined, the half-life is the time in which the quantity being followed falls by half. For `O=C(NC[C@H](O)CO)c1ccncc1Nc1ccc(I)cc1F` [Compound (1), N—((S)-2,3-dihydroxypropyl)-3-(2-fluoro-4-iodo-phenylamino)isonicotinamide], the “activity (cell growth inhibition)” value in the data set with HEK293, in the data set with J82, in the data set on JAR, in the data set on JEG3, in the data set with MDAMB436 and with MHHES1 was “minimal activity” throughout. For the same compound, the “activity (cell growth inhibition)” value in the data set with NCIH82, with PLCPRF5 and in the data set with SF268 was “minimal activity” in each case. For the same compound, the sensitivity entry in the data set on HT1080 is “very sensitive”. For the same compound, the IC50 was 4.8 to 8 nM in the data set on COLO205; 4.8 to 8 nM with NCIH292; over 50000 nM with SF295; 4.8 to 8 nM in the data set on SKMEL5; over 50000 nM in the data set on SKOV3; 4.8 to 8 nM in the data set on TE671. The “decrease of the Evans-Blue/Dextran-Fitc ratio compared to control” value in [3] was −9%. Besides, in the data set with 217 kinases, the “activity against 217 kinases” value is on record as “no activity”. Further, the “activity against 90 non-kinase targets” value with 90 non-kinase targets is reported as “no activity”. Also, in [4], the clearance is 15 to 43.3 mL/min/kg. Moreover, the half-life in data set [4] was 2.2 to 4.7 h. Also, the oral bioavailability in [4] is given as 52-57%. Moreover, in data set [5], the “two-week maximum tolerated dose” value is 60 mg/kg BID.

The record behind these values is US20140024653A1, “COMPOSITIONS AND METHODS FOR TREATING CANCER USING PI3K INHIBITOR AND MEK INHIBITOR” (priority 2011, published 2014).
